As a reminder, the EC50 is the concentration at which the effect is half-maximal.

EC50 and secretion of progranulin data for 46 compounds are collected here from US20220251084A1, “PROGRANULIN MODULATORS AND METHODS OF USING THE SAME” (ARKUDA THERAPEUTICS, priority 2019, published 2022).

Structures can show the parent of a compound that is named as a salt.

The first experiment relates to progranulin (PGRN) secretion, BV-2 cells. The experiment can be described thus: PGRN assay: progranulin induction cellular assay (ELISA of secreted mouse PGRN). It is filed as cell-based.
Settings: not given
How it is done: Cellular Assays: To measure the efficacy of compounds, a progranulin induction cellular assay in mouse primary microglia (pMG), primary cortical neurons, and BV-2 cell lines is used. BV-2 cells are split the day before plating into a 96 well plate format at approximately 80%. Cells should be plated the day before and allowed for 1 hour attachment period and for 16 hour incubation. […] Standard ELISA kits to measure PGRN are available from vendors such as Adipogen, R&D, and Biovendor.
In general terms: ELISA stands for enzyme-linked immunosorbent assay.
As for `Fc1ccc(C2c3ccccc3CCN2C(C[C@@H]2CN3CCC2CC3)C(F)(F)F)cc1` (stereo partly shown) [Compound 2133], the EC50 was 9.76 µM.
`O=C(O[C@@H]1CN2CCC1(F)CC2)N1CCc2ccccc2[C@@H]1c1ccc(F)cc1` (single isomer, unassigned) [Compound 2126] displayed a concentration for a half-maximal effect (EC50) of 1.25 µM.

The experiment is the same for the next values; noted with them: Mus musculus, BV-2.
Turning to `COC(=O)c1ccc2c(c1)[C@H](c1ccc(F)cc1)N(C(=O)O[C@@H]1CN3CCC1CC3)CC2` [Compound 2029], the EC50 was greater than 10 µM.
On the same count and under the same terms, in the case of `CS(=O)(=O)c1ccc2c(c1)CCN(C(=O)O[C@@H]1CN3CCC1CC3)[C@@H]2c1ccc(F)cc1` [Compound 2026] it was greater than 10 µM; in that of `C#CCOc1ccc2c(c1)CCN(C(=O)O[C@@H]1CN3CCC1CC3)[C@H]2c1ccc(F)cc1` [Compound 2082], 7.46 µM.

The same experiment, now with this note: Mus musculus, BV-2, PGRN assay, Table C; secreted mouse PGRN in cell culture medium, ELISA.
As to `CS(=O)(=O)c1ccc2c(c1)CCN(C(=O)N[C@@H]1CN3CCC1CC3)[C@@H]2c1ccc(F)cc1` [Compound 2041, 1-(4-fluorophenyl)-6-(methylsulfonyl)-N—((S)-quinuclidin-3-yl)-3,4-dihydroisoquinoline-2(1H)-carboxamide], the EC50 is greater than 10 µM.
Same read-out and setting: in the case of `CN1CCC2(CCCN2C(=O)N2CCc3ccccc3[C@@H]2c2ccc(F)cc2)CC1` [Compound 2120, (S)-(1-(4-fluorophenyl)-3,4-dihydroisoquinolin-2(1H)-yl)(8-methyl-1,8-diazaspiro[4.5]decan-1-yl)methanone] it was 2.68 µM.
Take `O=C([C@H](O)CC12CCN(CC1)CC2)N1CCc2ccccc2[C@@H]1c1ccc(F)cc1` (single isomer, unassigned) [Compound 2154]: a half-maximal effect (EC50) was put at 0.353 µM.
In the case of `O=S(=O)(N[C@@H]1CN2CCC1CC2)N1CCc2ccccc2[C@@H]1c1ccc(F)cc1` [Compound 2010], the concentration giving a half-maximal response (EC50) is greater than 10 µM.
Compound `O=C(OCC12CCN(CC1)CC2)N1CCc2ccccc2[C@H]1c1cc(F)cc(F)c1` (single isomer, unassigned) [Compound 2141, quinuclidin-4-ylmethyl-1-(3,5-difluorophenyl)-3,4-dihydroisoquinoline-2(1H)-carboxylate] returned an EC50 greater than 10 µM.
The compound `CN1CC2(CC[C@@H]2OC(=O)N2CCc3ccccc3[C@@H]2c2ccc(F)cc2)C1` [Compound 2021] displayed an EC50 of 0.735 µM.
With `COCCOCCOc1ccc(COc2ccc([C@@H]3c4ccccc4CCN3C(=O)OCC34CCN(CC3)CC4)cc2)cc1` [Compound 2047], the EC50 was greater than 2.69 µM.
On the same count and under the same terms, in the case of `CNC(=O)c1ccc2c(c1)[C@@H](c1ccc(F)cc1)N(C(=O)OCC13CCN(CC1)CC3)CC2` [Compound 2060] it was greater than 10 µM; in that of `COC(=O)c1ccc2c(c1)[C@H](c1ccc(F)cc1)N(C(=O)N[C@@H]1CN3CCC1CC3)CC2` [Compound 2116, methyl (S)-1-(4-fluorophenyl)-2-(((S)-quinuclidin-3-yl)carbamoyl)-1,2,3,4-tetrahydroisoquinoline-7-carboxylate], greater than 10 µM; in that of `CN1CCC(F)(COC(=O)N2CCc3ccccc3[C@@H]2c2ccc(F)cc2)CC1` [Compound 2114], 0.401 µM.
With `O=C(O[C@@H]1[C@@H]2CC[C@H]1CNC2)N1CCc2ccccc2[C@@H]1c1ccc(F)cc1` (single isomer, unassigned) [Compound 2103], a half-maximal effect (EC50) was put at 4.28 µM.
Still for that read-out and setting: in the case of `COC(=O)c1ccc2c(c1)[C@H](c1ccc(F)cc1)N(C(=O)NCC13CCN(CC1)CC3)CC2` [Compound 2117, methyl (S)-1-(4-fluorophenyl)-2-((quinuclidin-4-ylmethyl)carbamoyl)-1,2,3,4-tetrahydroisoquinoline-7-carboxylate] it was greater than 10 µM; in that of `CN1C2CCC1[C@H](OC(=O)N1CCc3ccccc3[C@H]1c1ccc(F)cc1)CC2` (stereo partly shown) [Compound 2017], 0.722 µM; in that of `O=C(CO[C@@H]1CN2CCC1CC2)N1CCc2ccccc2[C@@H]1c1ccc(F)cc1` [Compound 2009], 0.811 µM.
Compound `CN1CC2COC[C@H](C1)C2OC(=O)N1CCc2ccccc2[C@@H]1c1ccc(F)cc1` (stereo partly drawn) [Compound 2144, (S)-((1R,5S,9r)-7-methyl-3-oxa-7-azabicyclo[3.3.1]nonan-9-yl) 1-(4-fluorophenyl)-3,4-dihydroisoquinoline-2(1H)-carboxylate] showed an EC50 of 1.34 µM.
The same measure, in the same setting: in the case of `C#CCOc1ccc2c(c1)CCN(C(=O)N[C@@H]1CN3CCC1CC3)[C@H]2c1ccc(F)cc1` [Compound 2063] it was greater than 10 µM; in that of `CN1CCO[C@@H](COC(=O)N2CCc3ccccc3[C@@H]2c2ccc(F)cc2)C1` [Compound 2005], 0.587 µM.
Turning to `O=C(OCCC12CCN(CC1)CC2)N1CCc2ccccc2[C@@H]1c1ccc(F)cc1` [Compound 2130, 2-(quinuclidin-4-yl)ethyl (S)-1-(4-fluorophenyl)-3,4-dihydroisoquinoline-2(1H)-carboxylate], the EC50 was greater than 3.16 µM.

Staying with this experiment, now noted: Mus musculus, BV-2, PGRN assay, Table D; secreted mouse PGRN in cell culture medium, ELISA.
With `CN1CCC(NC(=O)N2CCc3ccccc3[C@@H]2c2ccc(F)cc2)CC1` [Compound 2238, (S)-1-(4-fluorophenyl)-N-(1-methylpiperidin-4-yl)-3,4-dihydroisoquinoline-2(1H)-carboxamide], the EC50 stood at 0.72 µM. That is a sub-micromolar value.
Turning to `O=C(NC[C@@H]1CCCNC1)N1CCc2ccccc2[C@@H]1c1ccc(F)cc1` [Compound 2221], a half-maximal effect (EC50) was put at 7.83 µM.
Consider `CN1C[C@@H](NC(=O)N2CCc3ccccc3[C@@H]2c2ccc(F)cc2)C(F)(F)C1` [Compound 2293, (S)—N—((R)-4,4-difluoro-1-methylpyrrolidin-3-yl)-1-(4-fluorophenyl)-3,4-dihydroisoquinoline-2(1H)-carboxamide], for which the concentration for a half-maximal effect (EC50) was greater than 10 µM.
Regarding `CN1C[C@@H](N(C)C(=O)N2CCc3ccccc3[C@@H]2c2ccc(F)cc2)C(F)(F)C1` [Compound 2298, (S)—N—((R)-4,4-difluoro-1-methylpyrrolidin-3-yl)-1-(4-fluorophenyl)-N-methyl-3,4-dihydroisoquinoline-2(1H)-carboxamide], the EC50 is greater than 10 µM.
`CN1[C@@H]2CC[C@H]1[C@@H](NC(=O)N1CCc3ccccc3[C@@H]1c1ccc(F)cc1)C2` [Compound 2224] came in with a concentration giving a half-maximal response (EC50) of 0.48 µM.
As for `CN1CC[C@@H](OC(=O)N2CCc3ccccc3[C@@H]2c2ccc(F)cc2)C1` [Compound 2250, (R)-1-methylpyrrolidin-3-yl (S)-1-(4-fluorophenyl)-3,4-dihydroisoquinoline-2(1H)-carboxylate hydrochloride], a half-maximal response (EC50) required 0.1 µM.
Turning to `O=C(N[C@@H]1CNCC12CC2)N1CCc2ccccc2[C@@H]1c1ccc(F)cc1` [Compound 2281], it took 0.273 µM to reach a half-maximal effect (EC50).
Regarding `NC[C@H]1CCN(C(=O)N2CCc3ccccc3[C@@H]2c2ccc(F)cc2)C1` [Compound 2288], the EC50 came to 0.248 µM.
`O=C(O[C@@H]1CNCCOC1)N1CCc2ccccc2[C@@H]1c1ccc(F)cc1` [Compound 2260]: the concentration for a half-maximal effect (EC50) was found to be 0.73 µM.
The compound `O=C1N[C@H](CNC(=O)N2CCc3ccccc3[C@@H]2c2ccc(F)cc2)CO1` [Compound 2259, (S)-1-(4-fluorophenyl)-N—(((R)-2-oxooxazolidin-4-yl)methyl)-3,4-dihydroisoquinoline-2(1H)-carboxamide] displayed a concentration for a half-maximal effect (EC50) greater than 10 µM.
For `CN1CC[C@H](O)[C@@H](OC(=O)N2CCc3ccccc3[C@@H]2c2ccc(F)cc2)[C@@H]1CO` (single isomer, unassigned) [Compound 2305], the EC50 is 5.87 µM. This counts as single-digit micromolar.
`O=C(O[C@@H]1CNCC12CC2)N1CCc2ccccc2[C@@H]1c1ccc(F)cc1` (stereo in doubt) [Compound 2310, 5-azaspiro[2.4]heptan-7-yl-(1 S)-1-(4-fluorophenyl)-3,4-dihydroisoquinoline-2(1H)-carboxylate]: the response was half-maximal at 0.501 µM (EC50). Against the preceding compound, the EC50 is about 12-fold lower.
On to `CN(C)C[C@H]1CCN(C(=O)N2CCc3ccccc3[C@@H]2c2ccc(F)cc2)C1` [Compound 2314], for which the EC50 amounted to 1.66 µM.
The compound `CN1CC[C@@H](N(C)C(=O)N2CCc3ccccc3[C@@H]2c2ccc(F)cc2)C1` [Compound 2265] registered an EC50 of 0.286 µM.
With `O=C(N1CCNCC(F)(F)C1)N1CCc2ccccc2[C@@H]1c1ccc(F)cc1` [Compound 2262, (S)-(6,6-difluoro-1,4-diazepan-1-yl)(1-(4-fluorophenyl)-3,4-dihydroisoquinolin-2(1H)-yl)methanone], the EC50 was greater than 10 µM.
`O=C(OCC[C@@H]1CN2CCC1CC2)N1CCc2ccccc2[C@@H]1c1ccc(F)cc1` [Compound 2206, 2-((S)-quinuclidin-3-yl)ethyl (S)-1-(4-fluorophenyl)-3,4-dihydroisoquinoline-2(1H)-carboxylate formate] returned an EC50 of 1.99 µM.
On to `CN(C(=O)N1CCc2ccccc2[C@@H]1c1ccc(F)cc1)[C@@H]1CCNC1` [Compound 2253, 1-(4-fluorophenyl)-N-methyl-((R)-pyrrolin-3-yl)-3,4-dihydroisoquinoline-2(1H)-carboxamide], for which the midpoint of the response, the EC50, lay at 0.11 µM.
With `O=C(OC[C@@H]1CCNC1)N1CCc2ccccc2[C@@H]1c1ccc(F)cc1` [Compound 2230], the half-maximal effective concentration (EC50) amounted to 1.07 µM.
The compound `N[C@H]1CCN(C(=O)N2CCc3ccccc3[C@@H]2c2ccc(F)cc2)C1` [Compound 2284] gave a concentration giving a half-maximal response (EC50) of 0.806 µM.

Staying with this experiment, now noted: PGRN assay, Table C; secreted mouse PGRN in cell culture medium, ELISA.
For `O=C(OC1CNC1)N1CCc2ccccc2[C@@H]1c1ccc(F)cc1` [Compound 2177], the half-maximal effective concentration (EC50) was greater than 3.16 µM.
Still for that read-out and setting: in the case of `O=C(OC1CCNCC1)N1CCc2ccccc2[C@@H]1c1ccc(F)cc1` [Compound 2176] it was 0.29 µM.

The experiment is the same for the next values; noted with them: PGRN assay, Table D; secreted mouse PGRN in cell culture medium, ELISA.
On to `O=C(N[C@H]1CNCCOC1)N1CCc2ccccc2[C@@H]1c1ccc(F)cc1` (single isomer, unassigned) [Compound 2276], for which the midpoint of the response, the EC50, lay at 1.05 µM.

The same experiment, now with this note: mouse BV2 cells.
As for `O=C(O[C@H]1CN2CCC1CC2)N1CCc2ccccc2[C@@H]1c1ccccc1` [Solifenacin, reference compound], the secretion of progranulin entry is reported as “causes the secretion of progranulin”.
